Measurements reported in publication PMC11900313, “Exploring the Potential of Coumarin Derivatives on Serotonin Receptors 5-HT1A and 5HT2A” (International Journal of Molecular Sciences, 2025).
Values joined by “and” are separate entries in the source; they are usually repeats but may differ in a detail not shown here. Equal entries are not always repeated. Where two headings read alike, the source gives them in different places.

Legend:
5-HT1A receptor [1] = test system: 5-HT1A receptor; set-up: method as in PMID 36769117; details: previous study; cited from earlier work
5-HT2A receptor [2] = details: earlier study; cited from earlier work
5-HT1A receptor [3] = details: earlier study; cited from earlier work
5-HT2A receptor [4] = biological target: T1, 5-HT2A receptor (Rattus norvegicus, UniProt P14842); experiment: 5-HT2A competitive radioligand binding assay with [3H]ketanserin, frontal cortex membranes; set-up: species or system Sprague–Dawley rats
T1 construct: from tissue; host or cells: Sprague-Dawley rat frontal cortex membranes
Method: (§1) Sprague–Dawley rats were decapitated under isoflurane anesthesia. Brains were rapidly removed and placed on ice. Hippocampi (for the 5-HT1A assay) or frontal cortices (for the 5-HT2A assay) were dissected on a Petri dish. The tissue from 10 rats was homogenized in 30 vol. homogenization buffer (50 mM Tris-HCl, pH = 4.7, 1 mM EDTA, 1mM dithiothreitol) with a hand held Teflon-glass homogenizer. The homogenate was centrifuged at 48,000× g at 4 °C for 15 min. The pellet was suspended and homogenized in homogenization buffer and incubated for 10 min at 36 °C. The centrifugation and suspension steps were repeated twice. The final pellet was homogenized in 5 vol. 50 mM Tris-HCl, pH = 7.4 buffer and stored at −80 °C for no longer than 6 months.
(§2) Non-specific binding was determined with 10 μM serotonin. The final DMSO concentration in the assay was 5%. After incubation, the reaction mixture was deposited with the FilterMate-96 Harvester (Revvity, Waltham, MA, USA) onto Unifilter® GF/C plates (Revvity, Waltham, MA, USA) presoaked in 0.4% PEI for 1 h. Each well was washed with 2 mL of 50 mM Tris-HCl (pH 7.4) buffer to separate bound ligands from free. Plates were left to dry overnight. Then, 35 µL of Microscint-20 scintillation fluid (Revvity, Waltham, MA, USA) was added to each filter well and left to equilibrate for 2 h. Filter-bound radioactivity was counted in a MicroBeta^2 LumiJet scintillation counter (Revvity, Waltham, MA, USA). Binding curves were fitted with one site non-linear regression. The binding affinity (Ki) for each compound was calculated from the EC50 values with the Cheng–Prusoff equation from two separate experiments.

5-HT1A receptor [5] = biological target: T2, 5-HT1A receptor (Rattus norvegicus, UniProt P19327); experiment: Antagonist activity at 5-HT1A receptors, [35S]GTPγS assay with 8-OH-DPAT stimulation; type: biochemical, Sprague–Dawley rats; details: for IC50: antagonist activity, [35S]GTPγS
T2 construct: from tissue; host or cells: Sprague-Dawley rat hippocampus membranes
T2 sequence (P19327 1-422): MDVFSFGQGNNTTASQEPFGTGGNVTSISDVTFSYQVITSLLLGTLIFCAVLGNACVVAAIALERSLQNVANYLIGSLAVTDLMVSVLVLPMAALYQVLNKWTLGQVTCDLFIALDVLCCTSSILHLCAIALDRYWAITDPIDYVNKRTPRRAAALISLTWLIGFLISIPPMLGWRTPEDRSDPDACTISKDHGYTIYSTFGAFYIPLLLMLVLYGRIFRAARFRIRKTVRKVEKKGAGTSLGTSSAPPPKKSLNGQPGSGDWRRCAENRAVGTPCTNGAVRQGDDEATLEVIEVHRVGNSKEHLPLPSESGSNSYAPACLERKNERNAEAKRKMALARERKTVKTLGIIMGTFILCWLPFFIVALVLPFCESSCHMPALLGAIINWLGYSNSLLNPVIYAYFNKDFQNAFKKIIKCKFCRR
Method: as §1
Then, hippocampal membrane homogenates (15 μg/mL) were added to each well, and the mixture was incubated for 90 min. at 37 °C in a total volume of 250 µL. Non-specific binding was determined with 10 µM of unlabeled GTPγS. The reaction was terminated by vacuum filtration onto GF/C Unifilter Plates (Revvity, Waltham, MA, USA) presoaked with 50 mM Tris-HCl (pH = 7.4) for 1 h with the FilterMate Harvester® (Revvity, Waltham, MA, USA). The samples were then rapidly washed with 2 mL of 50 mM Tris-HCl (pH = 7.4) buffer. The Unifilter plates were dried overnight at RT. After drying, 35 µL of EcoScint-20 scintillant (Revvity, Waltham, MA, USA) was added to each well. Radioactivity was counted in a Trilux MicroBeta^2 counter (Revvity, Waltham, MA, USA). […] The curves were fitted with a one-site non-linear regression model to determine inhibitory potency (IC50). The experiments were repeated twice.

5-HT1A receptor [6] = biological target: T2, 5-HT1A receptor; experiment: 5-HT1A competitive radioligand binding assay with [3H]8-OH-DPAT, hippocampal membranes; set-up: species or system Sprague–Dawley rats; details: [3H]8-OH-DPAT, hippocampal membranes; 95% CI in brackets
Method: as §1, §2

[7] = read-out: 5-HT2A Ki (nM, 95% CI)
[8] = 1 µM 8-OH-DPAT, 95% CI in brackets, read-out: 5-HT1A IC50 (µM, 95% CI)

T1 sequence (P14842 whole entry): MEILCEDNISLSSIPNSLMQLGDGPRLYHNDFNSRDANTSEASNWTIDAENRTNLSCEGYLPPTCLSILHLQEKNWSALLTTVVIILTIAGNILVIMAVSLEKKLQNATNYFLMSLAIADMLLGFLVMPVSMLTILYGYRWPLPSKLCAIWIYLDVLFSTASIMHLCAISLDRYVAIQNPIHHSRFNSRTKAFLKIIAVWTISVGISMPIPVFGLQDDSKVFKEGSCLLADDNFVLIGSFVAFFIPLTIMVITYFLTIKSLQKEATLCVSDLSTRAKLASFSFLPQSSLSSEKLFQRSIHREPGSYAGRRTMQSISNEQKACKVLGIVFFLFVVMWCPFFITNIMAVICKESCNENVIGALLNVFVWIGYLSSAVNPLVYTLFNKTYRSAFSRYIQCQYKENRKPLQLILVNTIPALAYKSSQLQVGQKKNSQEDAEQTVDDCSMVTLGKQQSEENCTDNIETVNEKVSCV

Row | SMILES | Ki (5-HT2A receptor [4]; [7]) [nM] | IC50 (5-HT1A receptor [5]; [8]) | Ki (5-HT1A receptor [6]) [nM] | further results
1 | COc1cccc(N2CCN(CCCCOc3cc4oc(=O)cc(C)c4cc3C(C)=O)CC2)c1 [6-acetyl-7-{4-[4-(3-methoxyphenyl)piperazin-1-yl]butoxy}-4-methylcoumarin] | – | – | – | 5-HT1A receptor activity (agonist/antagonist) (5-HT1A receptor [1]): agonist
2 | COc1ccccc1N1CCN(CCCOc2ccc3c(C)cc(=O)oc3c2C(C)=O)CC1 [8-acetyl-7-{3-[4-(2-methoxyphenyl)piperazin-1-yl]propoxy}-4-methylcoumarin] | – | – | – | Ki (5-HT2A receptor [2]): 8 nM; Ki (5-HT1A receptor [3]): 0.6 nM
3 | COc1ccccc1N1CCN(CC(O)COc2cc3oc(=O)cc(C)c3cc2C(C)=O)CC1 (centres unmarked) [Compound 1, 6-Acetyl-7-(2-hydroxy-3-(4-(2-methoxyphenyl)piperazin-1-yl)propoxy)-4-methyl-2H-chromen-2-one] | 1850 | 331 µM | 243 | –
4 | COc1cccc(N2CCN(CC(O)COc3cc4oc(=O)cc(C)c4cc3C(C)=O)CC2)c1 (centres unmarked) [Compound 2, 6-Acetyl-7-(2-hydroxy-3-(4-(3-methoxyphenyl)piperazin-1-yl)propoxy)-4-methyl-2H-chromen-2-one] | – | 58.5 µM and 59 µM | 196 | Ki (5-HT2A receptor [4]; [3H]ketanserin, frontal cortex membranes, 95% CI in brackets): 83 nM
5 | COc1ccccc1N1CCN(CC(O)COc2cc(=O)oc3ccccc23)CC1 (centres unmarked) [Compound 3, 4-(2-Hydroxy-3-(4-(2-methoxyphenyl)piperazin-1-yl)propoxy)-2H-chromen-2-one] | 4010 | 67.8 µM and 68 µM | 243 | –
6 | COc1cccc(N2CCN(CC(O)COc3cc(=O)oc4ccccc34)CC2)c1 (centres unmarked) [Compound 4, 4-(2-Hydroxy-3-(4-(3-methoxyphenyl)piperazin-1-yl)propoxy)-2H-chromen-2-one] | 315 | 10 µM | 190 | –
7 | COc1ccccc1N1CCN(CC(O)COc2cc(C)cc3oc(=O)cc(C)c23)CC1 (centres unmarked) [Compound 5, 5-(2-Hydroxy-3-(4-(2-methoxyphenyl)piperazin-1-yl)propoxy)-4,7-dimethyl-2H-chromen-2-one] | 1180 | 14.7 µM | 90 | –
8 | COc1cccc(N2CCN(CC(O)COc3cc(C)cc4oc(=O)cc(C)c34)CC2)c1 (centres unmarked) [Compound 6, 5-(2-Hydroxy-3-(4-(3-methoxyphenyl)piperazin-1-yl)propoxy)-4,7-dimethyl-2H-chromen-2-one] | 662 | 6.5 µM | 176 | –
9 | COc1ccccc1N1CCN(CC(O)COc2c(C(C)=O)c(C)cc3oc(=O)cc(C)c23)CC1 (centres unmarked) [Compound 7, 6-Acetyl-5-(2-hydroxy-3-(4-(2-methoxyphenyl)piperazin-1-yl)propoxy)-4,7-dimethyl-2H-chromen-2-one] | 4150 | 2.4 µM | 90 | –
10 | COc1cccc(N2CCN(CC(O)COc3c(C(C)=O)c(C)cc4oc(=O)cc(C)c34)CC2)c1 (centres unmarked) [Compound 8, 6-Acetyl-5-(2-hydroxy-3-(4-(3-methoxyphenyl)piperazin-1-yl)propoxy)-4,7-dimethyl-2H-chromen-2-one] | 115 | 16.2 µM | 1780 | –
11 | COc1ccccc1N1CCN(CC(O)COc2ccc3c(C)cc(=O)oc3c2)CC1 (centres unmarked) [Compound 9, 7-(2-Hydroxy-3-(4-(2-methoxyphenyl)piperazin-1-yl)propoxy)-4-methyl-2H-chromen-2-one] | 291 | 2.42 µM and 2.4 µM | 245 | –
12 | COc1cccc(N2CCN(CC(O)COc3ccc4c(C)cc(=O)oc4c3)CC2)c1 (centres unmarked) [Compound 10, 7-(2-Hydroxy-3-(4-(3-methoxyphenyl)piperazin-1-yl)propoxy)-4-methyl-2H-chromen-2-one] | 260 | 89.5 µM | 87 | –
13 | COc1ccccc1N1CCN(CC(O)COc2ccc3c(C)cc(=O)oc3c2C(C)=O)CC1 (centres unmarked) [Compound 11, 8-Acetyl-7-(2-hydroxy-3-(4-(2-methoxyphenyl)piperazin-1-yl)propoxy)-4-methyl-2H-chromen-2-one] | 6160 | – | – | IC50 (5-HT1A receptor [5]; given in nM in text, read-out: 5-HT1A IC50): 0.043 µM; 5-HT1A functional profile (5-HT1A receptor [5]; functional assays): significant 5-HT1A antagonistic profile
14 | COc1cccc(N2CCN(CC(O)COc3ccc4c(C)cc(=O)oc4c3C(C)=O)CC2)c1 (centres unmarked) [Compound 12, 8-Acetyl-7-(2-hydroxy-3-(4-(3-methoxyphenyl)piperazin-1-yl)propoxy)-4-methyl-2H-chromen-2-one] | 67 | – | 264 | –
15 | COc1ccccc1N1CCN(CC(O)COc2ccc3ccc(=O)oc3c2)CC1 (centres unmarked) [Compound 13, 7-(2-Hydroxy-3-(4-(2-methoxyphenyl)piperazin-1-yl)propoxy)-2H-chromen-2-one] | 18 | 1.43 µM | 222 | –
16 | COc1cccc(N2CCN(CC(O)COc3ccc4ccc(=O)oc4c3)CC2)c1 (centres unmarked) [Compound 14, 7-(2-Hydroxy-3-(4-(3-methoxyphenyl)piperazin-1-yl)propoxy)-2H-chromen-2-one] | 68 | 112 µM | 135 | –
